Like-named read-outs stand apart in the source and are kept apart here.
Legend:
MDA-MB-468 = test: NCI-60 anticancer screen (SRB; single dose and five doses); type: cell-based, human; details: Homo sapiens, 48 h; MDA-MB-468; dose of 10 μM; read-out: Growth Percentage
In short: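 Readout was sulforhodamine B staining, read spectrophotometrically as percent growth against untreated controls. This followed a 48 h exposure to one 10μM dose across roughly 60 human tumor lines of the NCI screen.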

UACC-257 = test: as above; details: Homo sapiens, UACC-257, 48 h, read-out: Growth Percentage
HS 578T = test: as above; details: Homo sapiens, 48 h, read-out: Growth Percentage
M14 = test: as above; details: Homo sapiens, M14, 48 h, read-out: Growth Percentage
MCF7 = test: as above; details: Homo sapiens, MCF7, 48 h, read-out: Growth Percentage
U251 = test: as above; details: Homo sapiens, U-251, 48 h, read-out: Growth Percentage
SNB-19 = test: cells; details: Homo sapiens, SNB-19, 48 h, read-out: Growth Percentage
SF-268 = test: NCI-60 anticancer screen (SRB; single dose and five doses); details: Homo sapiens, SF-268, 48 h, read-out: Growth Percentage
CAKI-1 = test: as above; details: Homo sapiens, CAKI-1, 48 h, read-out: Growth Percentage
NCI-H522 = test: as above; details: Homo sapiens, NCI-H522, 48 h, read-out: Growth Percentage
SK-OV-3 = test: as above; details: Homo sapiens, SK-OV-3, 48 h, read-out: Growth Percentage
UACC-62 = test: as above; details: Homo sapiens, UACC-62, 48 h, read-out: Growth Percentage
RXF 393 = test: as above; details: Homo sapiens, RXF 393, 48 h, read-out: Growth Percentage
[1] = test system: 60 human tumor cell lines panel; test: NCI-60 anticancer screen, whole panel (means and ranges over the cell lines); type: cell-based; details: Homo sapiens, 48 h, dose of 10 μM
MALME-3M = test: NCI-60 anticancer screen (SRB; single dose and five doses); details: Homo sapiens, 48 h, read-out: Growth Percentage
SF-539 = test: as above; details: Homo sapiens, SF-539, 48 h, read-out: Growth Percentage
SK-MEL-2 = test: as above; details: Homo sapiens, SK-MEL-2, 48 h, read-out: Growth Percentage
MOLT-4 = test: as above; details: Homo sapiens, MOLT-4, 48 h, read-out: Growth Percentage
SW-620 = test: as above; details: Homo sapiens, SW-620, 48 h, read-out: Growth Percentage
IGROV1 = test: as above; details: Homo sapiens, IGROV-1, 48 h, read-out: Growth Percentage
OVCAR-8 = test: as above; details: Homo sapiens, OVCAR-8, 48 h, read-out: Growth Percentage
MDA-MB-231/ATCC = test: as above; details: Homo sapiens, MDA-MB-231, 48 h, read-out: Growth Percentage
UO-31 = test: as above; details: Homo sapiens, UO-31, 48 h, read-out: Growth Percentage
HL-60(TB) = test: as above; details: Homo sapiens, HL-60, 48 h, read-out: Growth Percentage
SK-MEL-5 = test: as above; details: Homo sapiens, SK-MEL-5, 48 h, read-out: Growth Percentage

`Cc1[nH]c(=S)sc1C(=O)/C=C/c1ccccc1Cl` [2d, (E)-3-(2-Chlorophenyl)-1-(4-Methyl-2-Thioxo-2,3-Dihydrothiazol-5-yl)Prop-2-En-1-One] showed an activity at 10 µM (MDA-MB-468) of 30.8%, an activity at 10 µM (UACC-257) of 87.2% and an activity at 10 µM (HS 578T) of 92.8%. For the same compound, the activity at 10 µM (M14) was 82.3%, the activity at 10 µM (MCF7) was 28.9% and the activity at 10 µM (U251) was 63.3%. The activity at 10 µM (SNB-19) was 85.2%, the activity at 10 µM (SF-268) was 80.4% and the activity at 10 µM (CAKI-1) was 68.5%. The activity at 10 µM (NCI-H522) was 90.1%, the activity at 10 µM (SK-OV-3) was 118% and the activity at 10 µM (UACC-62) was 72.9%. The activity at 10 µM (RXF 393) was 93.8%, the activity at 10 µM ([1]; mean over the tested cell lines, read-out: Mean growth percentage) was 79.4% and the activity at 10 µM ([1]; range over the cell lines, read-out: growth percentages against most of the tested cells (lowest to highest)) was 14.1 to 116%. For the same compound, the activity at 10 µM (MALME-3M) was 105%, the activity at 10 µM (SF-539) was 93.6% and the activity at 10 µM (SK-MEL-2) was 84.8%. It also gave an activity at 10 µM (MOLT-4) of 84.2%, an activity at 10 µM (SW-620) of 82% and an activity at 10 µM (IGROV1) of 91.9%. For the same compound, the activity at 10 µM (OVCAR-8) was 85.4%, the activity at 10 µM (MDA-MB-231/ATCC) was 101% and the activity at 10 µM (UO-31) was 73.7%. It also gave an activity at 10 µM (HL-60(TB)) of 53% and an activity at 10 µM (SK-MEL-5) of 68.5%.

From article PMC11435058, “Synthesis of New Thiazole-Privileged Chalcones as Tubulin Polymerization Inhibitors with Potential Anticancer Activities” (Pharmaceuticals, 2024)
